Measurements from PubChem BioAssay (NCI).
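Dose response: 5 concentrations. Exposure: 48 h. Format: 96-well plates. Endpoint: linear interpolation; highest concentration if not reached. GI50 = concentration required for 50% inhibition of growth. TGI marks complete inhibition of growth.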

What was measured:
Assay in all cases: NCI-60 cell line screen, 48 h
[1] = test system: UO-31 renal
[2] = test system: SW-620 colon
[3] = test system: HOP-92 NSCLC
[4] = test system: SR leukemia
[5] = test system: NCI-H460 lung
[6] = test system: UACC-62 melanoma
[7] = test system: MDA-MB-435
[8] = test system: OVCAR-8 ovarian
[9] = test system: M14 melanoma
[10] = test system: CAKI-1 renal
[11] = test system: A498 renal
[12] = test system: CCRF-CEM leukemia
[13] = test system: K-562 leukemia
[14] = test system: HCT-116 colon
[15] = test system: RPMI-8226 leukemia
[16] = test system: DU-145 prostate
[17] = test system: OVCAR-3 ovarian
[18] = test system: 786-0 renal
[19] = test system: OVCAR-4 ovarian
[20] = test system: SK-MEL-28 melanoma
[21] = test system: SK-MEL-5 melanoma
[22] = test system: HL-60(TB) leukemia
[23] = test system: MOLT-4 leukemia
[24] = test system: BT-549 breast
[25] = test system: RXF 393 renal
[26] = test system: MDA-MB-231 breast
[27] = test system: U251 CNS
[28] = test system: NCI-H522 lung
[29] = test system: NCI-H226 lung
[30] = test system: KM12 colon
[31] = test system: MALME-3M melanoma
[32] = test system: SNB-75 CNS
[33] = test system: SK-MEL-2 melanoma
[34] = test system: HCT-15 colon
[35] = test system: T-47D breast
[36] = test system: UACC-257 melanoma
[37] = test system: HCC-2998 colon
[38] = test system: HOP-62 NSCLC
[39] = test system: HT29 colon
[40] = test system: NCI-H23 lung
[41] = test system: IGROV1 ovarian
[42] = test system: SF-539 CNS
[43] = test system: COLO 205 colon
[44] = test system: PC-3 prostate
[45] = test system: HS 578T breast
[46] = test system: SF-295 CNS
[47] = test system: SK-OV-3 ovarian
[48] = test system: A549 NSCLC
[49] = test system: EKVX NSCLC
[50] = test system: LOX IMVI melanoma
[51] = test system: NCI/ADR-RES ovarian
[52] = test system: SF-268 CNS
[53] = test system: TK-10 renal
[54] = test system: SN12C renal
[55] = test system: SNB-19 CNS
[56] = test system: ACHN renal
[57] = test system: OVCAR-5 ovarian
[58] = test system: MCF7 breast

## CN(C)c1ccc(-c2ccc(-c3ccc(C(=N)N)c(F)c3)s2)cc1
[1]
  GI50: 1540 nM
  TGI: 3.05 µM
[2]
  GI50: 1480 nM
  TGI: 3.07 µM
[3]
  GI50: 1400 nM
  TGI: 3.03 µM
[4]
  GI50: 244 nM
  TGI: 0.692 µM
[5]
  GI50: 1.77 µM
  TGI: 3.37 µM
[6]
  GI50: 1830 nM
  TGI: 3.66 µM
[7]
  GI50: 1650 nM
  TGI: 3.17 µM
[8]
  GI50: 2230 nM
  TGI: 5.38 µM
[9]
  GI50: 1740 nM
  TGI: 3.39 µM
[10]
  GI50: 1590 nM
  TGI: 3.11 µM
[11]
  GI50: 0.0149 µM
  TGI: 1.15 µM
[12]
  GI50: 329 nM
  TGI: 1.26 µM
[13]
  GI50: 258 nM
  TGI: 0.699 µM
[14]
  GI50: 1170 nM
  TGI: 2.6 µM
[15]
  GI50: 1910 nM
  TGI: 4.48 µM
[16]
  GI50: 1650 nM
  TGI: 3.18 µM
[17]
  GI50: 1940 nM
  TGI: 3.59 µM
[18]
  GI50: 1870 nM
  TGI: 3.49 µM
[19]
  GI50: 1870 nM
  TGI: 3.5 µM

## O=S(=O)(Nc1cc(Br)c(O)c2ccccc12)c1ccc(F)cc1
[20]
  GI50: 2460 nM
  TGI: 5.39 µM
[21]
  GI50: 1790 nM
  TGI: 3.35 µM
[22]
  GI50: 2610 nM
  TGI: 6.95 µM
[1]
  GI50: 2150 nM
  TGI: 11.6 µM
[23]
  GI50: 2310 nM
  TGI: 5.33 µM
[24]
  GI50: 8.45 µM
  TGI: 21.2 µM
[25]
  GI50: 3690 nM
  TGI: 14.1 µM
[2]
  GI50: 2450 nM
  TGI: 7.65 µM
[26]
  GI50: 2100 nM
  TGI: 5.5 µM
[27]
  GI50: 2960 nM
  TGI: 7.77 µM
[3]
  GI50: 1950 nM
  TGI: 4.54 µM
[4]
  GI50: 4240 nM
  TGI: 34.3 µM
[5]
  GI50: 18.3 µM
  TGI: 38.7 µM
[6]
  GI50: 1920 nM
  TGI: 3.88 µM
[7]
  GI50: 1820 nM
  TGI: 3.3 µM
[28]
  GI50: 5.23 µM
  TGI: 83.4 µM
[29]
  GI50: 18.3 µM
  TGI: 38.9 µM
[8]
  GI50: 2780 nM
  TGI: 7.87 µM
[30]
  GI50: 6.27 µM
  TGI: 21.7 µM
[9]
  GI50: 2420 nM
  TGI: 6.12 µM
[31]
  GI50: 2030 nM
  TGI: 3.84 µM
[10]
  GI50: 7700 nM
  TGI: 20.5 µM
[11]
  GI50: 17.3 µM
  TGI: 33.3 µM
[32]
  GI50: 3.57 µM
  TGI: 17.1 µM
[33]
  GI50: 3420 nM
  TGI: 16.2 µM
[34]
  GI50: 2950 nM
  TGI: 11.3 µM
[35]
  GI50: 2580 nM
  TGI: 8.5 µM
[36]
  GI50: 1870 nM
  TGI: 3.58 µM
[12]
  GI50: 760 nM
  TGI: 8.29 µM
[37]
  GI50: 18.4 µM
  TGI: 33.4 µM
[38]
  GI50: 3.58 µM
  TGI: 18.5 µM
[39]
  GI50: 18.2 µM
  TGI: > 100 µM
[13]
  GI50: 3190 nM
  TGI: 8.28 µM
[40]
  GI50: 2800 nM
  TGI: 7.87 µM
[41]
  GI50: 2590 nM
  TGI: 5.51 µM
[42]
  GI50: 2330 nM
  TGI: 5.48 µM
[43]
  GI50: 10.7 µM
  TGI: 29.5 µM
[14]
  GI50: 2330 nM
  TGI: 6.44 µM
[44]
  GI50: 2930 nM
  TGI: 12.9 µM
[15]
  GI50: 2940 nM
  TGI: 20.1 µM
[16]
  GI50: 1830 nM
  TGI: 3.32 µM
[45]
  GI50: 2750 nM
  TGI: 9.98 µM
[46]
  GI50: 15.7 µM
  TGI: 29.7 µM
[47]
  GI50: 14.7 µM
  TGI: 35.9 µM
[48]
  GI50: 8.3 µM
  TGI: 26.7 µM
[49]
  GI50: 2640 nM
  TGI: 7.52 µM
[17]
  GI50: 2560 nM
  TGI: 6.4 µM
[50]
  GI50: 2070 nM
  TGI: 4.88 µM
[51]
  GI50: 2960 nM
  TGI: 8.68 µM
[52]
  GI50: 3200 nM
  TGI: 12.1 µM
[18]
  GI50: 3350 nM
  TGI: 11.3 µM
[53]
  GI50: 18.4 µM
  TGI: 32.7 µM
[54]
  GI50: 2040 nM
  TGI: 4.36 µM
[55]
  GI50: 9.35 µM
  TGI: 28 µM
[56]
  GI50: 3310 nM
  TGI: 14.1 µM

## CC1C2=C(CC(C)(C)CC2=O)NC2=C1C(=O)CC(C)(C)C2
[20]
  TGI: > 100 µM
[21]
  TGI: > 100 µM
[22]
  TGI: > 100 µM
[1]
  TGI: > 100 µM
[23]
  TGI: > 100 µM
[24]
  TGI: > 100 µM
[2]
  TGI: > 100 µM
[27]
  TGI: > 100 µM
[3]
  TGI: > 100 µM
[4]
  TGI: > 100 µM
[5]
  TGI: > 100 µM
[6]
  TGI: > 100 µM
[29]
  TGI: > 100 µM
[8]
  TGI: > 100 µM
[30]
  TGI: > 100 µM
[9]
  TGI: > 100 µM
[10]
  TGI: > 100 µM
[11]
  TGI: > 100 µM
[57]
  TGI: > 100 µM
[32]
  TGI: > 100 µM
[34]
  TGI: > 100 µM
[12]
  TGI: > 100 µM
[37]
  TGI: > 100 µM
[39]
  TGI: > 100 µM
[13]
  TGI: > 100 µM
[40]
  TGI: > 100 µM
[41]
  TGI: > 100 µM
[42]
  TGI: > 100 µM
[44]
  TGI: > 100 µM
[15]
  TGI: > 100 µM
[45]
  TGI: > 100 µM
[47]
  TGI: > 100 µM
[48]
  TGI: > 100 µM
[49]
  TGI: > 100 µM
[17]
  TGI: > 100 µM
[50]
  TGI: > 100 µM
[51]
  TGI: > 100 µM
[52]
  TGI: > 100 µM
[18]
  TGI: > 100 µM
[53]
  TGI: > 100 µM
[58]
  TGI: > 100 µM
[19]
  TGI: > 100 µM
[54]
  TGI: > 100 µM
[55]
  TGI: > 100 µM
[56]
  TGI: > 100 µM

## Cc1ccc(S(=O)(=O)OC[C@]23CCC(C)(C)C[C@H]2C2=CC[C@@H]4[C@@]5(C)CCCNC(C)(C)[C@@H]5CC[C@@]4(C)[C@]2(C)CC3)cc1
[1]
  GI50: 1290 nM
  TGI: 2.68 µM
[25]
  GI50: 1380 nM
  TGI: 2.78 µM
[28]
  GI50: 1.69 µM
  TGI: 3.38 µM
[10]
  GI50: 1450 nM
  TGI: 2.82 µM
[11]
  GI50: 5.99 µM
  TGI: 21.4 µM
[32]
  GI50: 1.48 µM
  TGI: 2.94 µM
[33]
  GI50: 2190 nM
  TGI: 4.83 µM
[42]
  GI50: 1710 nM
  TGI: 3.15 µM
[16]
  GI50: 1790 nM
  TGI: 3.37 µM
[45]
  GI50: 1820 nM
  TGI: 4.08 µM
[47]
  GI50: 1.76 µM
  TGI: 3.26 µM
[52]
  GI50: 2320 nM
  TGI: 8.44 µM
[53]
  GI50: 1.77 µM
  TGI: 3.33 µM
[56]
  GI50: 1690 nM
  TGI: 3.07 µM

## NC(=O)c1ncn(CC2(CO)CCC2)c1N
[32]
  GI50: 10.8 µM
